The values below come from patent US9445594B2, “Molecules having certain pesticidal utilities, intermediates, compositions, and processes, related thereto” (priority 2014, dated 2016).

Holding throughout (type): in vivo
For data set [1], the system named is Beet Armyworm (Spodoptera exigua, LAPHEG) ("BAW"). Put plainly: Bioassays on BAW, 128-well diet tray assay. The settings on record: 168 h, second instar larvae, 50 μg/cm^2 on artificial diet, 25° C., five to seven days, average of eight wells, read-out: BAW % Control (or Mortality) rating. The method, then:
(§1) Certain molecules disclosed in this document were tested against BAW, CEW, and CL using procedures described in the following examples. In the reporting of the results, the “BAW, CEW, & CL Rating Table” was used (See Table Section).
Bioassays on BAW were conducted using a 128-well diet tray assay. one to five second instar BAW larvae were placed in each well (3 mL) of the diet tray that had been previously filled with 1 mL of artificial diet to which 50 μg/cm^2 of the test compound (dissolved in 50 μL of 90:10 acetone-water mixture) had been applied (to each of eight wells) and then allowed to dry. Trays were covered with a clear self-adhesive cover and held at 25° C., 14:10 light-dark for five to seven days. Percent mortality was recorded for the larvae in each well; activity in the eight wells was then averaged. The results are indicated in the table entitled “Table ABC: Biological Results” (See Table Section).

Data set [2] has as its system Cabbage Looper (Trichoplusia ni, TRIPNI) ("CL"). Kind of data set: Bioassays on CL, 128-well diet tray assay. The settings on record: 168 h, second instar larvae, 50 μg/cm^2 on artificial diet, 25° C., five to seven days, average of eight wells, read-out: CL % Control (or Mortality) rating. The method, then: as §1
Bioassays on CL were conducted using a 128-well diet tray assay. one to five second instar CL larvae were placed in each well (3 mL) of the diet tray that had been previously filled with 1 mL of artificial diet to which 50 μg/cm^2 of the test compound (dissolved in 50 μL of 90:10 acetone-water mixture) had been applied (to each of eight wells) and then allowed to dry. Trays were covered with a clear self-adhesive cover and held at 25° C., 14:10 light-dark for five to seven days. Percent mortality was recorded for the larvae in each well; activity in the eight wells was then averaged. The results are indicated in the table entitled “Table ABC: Biological Results” (See Table Section).

Data set [3] has as its system Yellow Fever Mosquito (Aedes aegypti, AEDSAE) ("YFM"). Put plainly: Bioassays on YFM, 96-well plate larval assay. The settings on record: about 1 day-old larvae, from 4000 ppm DMSO master plate diluted, room temperature, scored after 3 days. The method, then:
Certain molecules disclosed in this document were tested against YFM using procedures described in the following paragraph. In the reporting of the results, the “YFM Rating Table” was used (See Table Section).
Master plates containing 400 μg of a molecule dissolved in 100 μL of dimethyl sulfoxide (DMSO) (equivalent to a 4000 ppm solution) are used. A master plate of assembled molecules contains 15 μL per well. To this plate, 135 μL of a 90:10 water:acetone mixture is added to each well. A robot (Biomek® NXP Laboratory Automation Workstation) is programmed to dispense 15 μL aspirations from the master plate into an empty 96-well shallow plate (“daughter” plate). There are 6 reps (“daughter” plates) created per master. The created daughter plates are then immediately infested with YFM larvae.
The day before plates are to be treated, mosquito eggs are placed in Millipore water containing liver powder to begin hatching (4 g. into 400 mL). After the daughter plates are created using the robot, they are infested with 220 μL of the liver powder/larval mosquito mixture (about 1 day-old larvae). After plates are infested with mosquito larvae, a non-evaporative lid is used to cover the plate to reduce drying. Plates are held at room temperature for 3 days prior to grading. After 3 days, each well is observed and scored based on mortality.

The structures appear in SMILES notation.

The mortality is the percentage killed.

In the case of `COc1ccccc1NC(=O)NCCCc1ccc(-c2ncn(-c3ccc(OC(F)(F)F)cc3)n2)cc1` [F81, 1-(2-Methoxyphenyl)-3-(3-(4-(1-(4-(trifluoromethoxy)phenyl)-1H-1,2,4-triazol-3-yl)phenyl)propyl)urea], the mortality at 50 µg/cm2 in data set [1] and in data set [2] was 50 to 100% throughout. Further, the “YFM % Control (or Mortality) rating” value in data set [3] is reported as “B (More than 0 - Less than 80)”.
Turning to `O=C(NCCCc1ccc(-c2ncn(-c3ccc(OC(F)(F)F)cc3)n2)cc1)Nc1ccccc1Cl` [F84, 1-(2-Chlorophenyl)-3-(3-(4-(1-(4-(trifluoromethoxy)phenyl)-1H-1,2,4-triazol-3-yl)phenyl)propyl)urea], the mortality at 50 µg/cm2 in data set [1] and in data set [2] was 50 to 100% throughout. The “YFM % Control (or Mortality) rating” value in data set [3] is given as “B (More than 0 - Less than 80)”.
Regarding `O=C(NCCCc1ccc(-c2ncn(-c3ccc(OC(F)(F)F)cc3)n2)cc1)Nc1cccc(Cl)c1` [F85, 1-(3-Chlorophenyl)-3-(3-(4-(1-(4-(trifluoromethoxy)phenyl)-1H-1,2,4-triazol-3-yl)phenyl)propyl)urea], the mortality at 50 µg/cm2 in data set [1] and in data set [2] was 50 to 100% in each case. The “YFM % Control (or Mortality) rating” value in data set [3] is “A (80-100)”.
Take `CCc1ccccc1NC(=O)NCCCc1ccc(-c2ncn(-c3ccc(OC(F)(F)F)cc3)n2)cc1` [F86, 1-(2-Ethylphenyl)-3-(3-(4-(1-(4-(trifluoromethoxy)phenyl)-1H-1,2,4-triazol-3-yl)phenyl)propyl)urea]: the mortality at 50 µg/cm2 in data set [1] and in data set [2] was 50 to 100% in each case. Moreover, the “YFM % Control (or Mortality) rating” value in data set [3] was “A (80-100)”.
Turning to `CC(C)c1ccccc1NC(=S)NCCCCc1ccc(-c2ncn(-c3ccc(OC(F)(F)F)cc3)n2)cc1` [F88, 1-(2-Isopropylphenyl)-3-(4-(4-(1-(4-(trifluoromethoxy)phenyl)-1H-1,2,4-triazol-3-yl)phenyl)butyl)thiourea], the mortality at 50 µg/cm2 in data set [1] and in data set [2] was 50 to 100% each time. Moreover, the “YFM % Control (or Mortality) rating” value in data set [3] was “A (80-100)”.
With `CC(C)c1ccccc1NC(=O)NCCCCc1ccc(-c2ncn(-c3ccc(OC(F)(F)F)cc3)n2)cc1` [F90, 1-(2-Isopropylphenyl)-3-(4-(4-(1-(4-(trifluoromethoxy)phenyl)-1H-1,2,4-triazol-3-yl)phenyl)butyl)urea], the mortality at 50 µg/cm2 in data set [1] and in data set [2] was 0% each time. In addition, the “YFM % Control (or Mortality) rating” value in data set [3] is “D (No activity noticed in this bioassay)”.
As for `O=C(NCCCCc1ccc(-c2ncn(-c3ccc(OC(F)(F)F)cc3)n2)cc1)Nc1cccc(Cl)c1` [F93, 1-(3-Chlorophenyl)-3-(4-(4-(1-(4-(trifluoromethoxy)phenyl)-1H-1,2,4-triazol-3-yl)phenyl)butyl)urea], the mortality at 50 µg/cm2 is 0% in data set [1] and 50 to 100% in data set [2]. In data set [3], the “YFM % Control (or Mortality) rating” value is “D (No activity noticed in this bioassay)”.
With `O=C(NCCCCc1ccc(-c2ncn(-c3ccc(OC(F)(F)F)cc3)n2)cc1)Nc1ccc(Cl)cc1` [F94, 1-(4-Chlorophenyl)-3-(4-(4-(1-(4-(trifluoromethoxy)phenyl)-1H-1,2,4-triazol-3-yl)phenyl)butyl)urea], the mortality at 50 µg/cm2 was 0% in data set [1] and 50 to 100% in data set [2]. In data set [3], the “YFM % Control (or Mortality) rating” value was “D (No activity noticed in this bioassay)”.
Take `COc1ccccc1NC(=O)NCCCCc1ccc(-c2ncn(-c3ccc(OC(F)(F)F)cc3)n2)cc1` [F95, 1-(2-Methoxyphenyl)-3-(4-(4-(1-(4-(trifluoromethoxy)phenyl)-1H-1,2,4-triazol-3-yl)phenyl)butyl)urea]: the figures for the mortality at 50 µg/cm2 in data set [1] and in data set [2] were 0% and 50 to 100%, respectively. The “YFM % Control (or Mortality) rating” value in data set [3] is reported as “D (No activity noticed in this bioassay)”.
